US20190134234A1, “COMPOSITION FOR STABILIZING RADIOCHEMICAL PURITY OF [18F] FLUORO-DOPA AND METHOD FOR PREPARING SAME” (CI-CO HEALTHCARE CO., LTD., priority 2015, published 2019)

Experiments:
[1] = IASOdopa SPC; cited from earlier work
[2] = Radiochemical purity by HPLC after neutralization with sodium bicarbonate, standing at room temperature; assay type: physicochemical; conditions: for radiochemical purity: room temperature; for impurities generated (HPLC chromatogram): pH 7, room temperature, no ethanol
Protocol: [^18F]fluoro-dopa (radiochemical purity 100%) was prepared according to known procedures (see Appl. Radiat. Isot. 672009 1650-1653), the initial hydrogen ion concentration of the prepared [^18F]fluoro-dopa (radiochemical purity 100%) is 4. This was formulated into physiological saline, and hydrogen ion concentration was adjusted to 6, 7, and 8, respectively, using sodium bicarbonate. Each time the solution was allowed to stand at room temperature (or at room temperature) for 0, 2, 4 and 6 hours, high-performance liquid chromatograph (HPLC) was used to measure the radiochemical purity. […]
[^18F]fluoro-dopa (radiochemical purity 100%) was prepared according to known procedures (see: Appl. Radiat. Isot. 67 2009 1650-1653), and the hydrogen ion concentration was adjusted to 7 (pH 7) using sodium bicarbonate after preparation with physiological saline. The determination of whether the radiochemical purity was generated was confirmed by measurement using HPLC (high-performance liquid chromatography) after 2 and 6 hours at room temperature. The results are illustrated in FIGS. 1 and 2. […]

[3] = Radiochemical purity of [18F]FDG by TLC after pH adjustment, standing at room temperature; assay type: physicochemical; conditions: for radiochemical purity: room temperature
Protocol: [^18F]FDG (radiochemical purity 100%) was prepared according to known procedure (Ind. J. Appl. Radiatl Isot 35 1984 985-986) was formulated with physiological saline and hydrogen ion concentration was adjusted to 6, 7, and 8, respectively, using sodium bicarbonate, and then was allowed to stand at room temperature for 0, 2, 4, and 6 hours.

N[C@@H](Cc1cc(O)c(O)cc1[18F])C(=O)O [[^18F]fluoro-dopa, L-6-[^18F]FLUORO-3,4-DIHYDROXYPHENYLALANINE]
pH at which it is oxidized [1]: ≥ 4.5 | radiochemical purity ([2]; pH 6, 0 hour, HPLC): 100% | radiochemical purity ([2]; pH 6, 2 hours, HPLC): 96.66% | radiochemical purity ([2]; pH 6, 4 hours, HPLC): 92.6% | radiochemical purity ([2]; pH 6, 6 hours, HPLC): 87.95% | radiochemical purity ([2]; pH 7, 0 hour, HPLC): 100% | radiochemical purity ([2]; pH 7, 2 hours, HPLC): 92.02% | radiochemical purity ([2]; pH 7, 4 hours, HPLC): 78.67% | radiochemical purity ([2]; pH 7, 6 hours, HPLC): 63.81% | impurities generated (HPLC chromatogram) ([2]; 2 hours after neutralization): the first impurity (IMP 1) was generated | impurities generated (HPLC chromatogram) ([2]; 6 hours after neutralization): the first impurity (IMP 1) and the second purity (IMP 2) were generated | radiochemical purity ([2]; pH 8, 0 hour, HPLC): 99.73% | radiochemical purity ([2]; pH 8, 2 hours, HPLC): 91.14% | radiochemical purity ([2]; pH 8, 4 hours, HPLC): 76.58% | radiochemical purity ([2]; pH 8, 6 hours, HPLC): 51.78%

OC[C@H]1OC(O)[C@H]([18F])[C@@H](O)[C@@H]1O (some centres unmarked) [[^18F]FDG]
radiochemical purity ([3]; pH 6, 0 hour): 99.07% | radiochemical purity ([3]; pH 6, 2 hours): 98.04% | radiochemical purity ([3]; pH 6, 4 hours): 98.12% | radiochemical purity ([3]; pH 6, 6 hours): 99.12% | radiochemical purity over time at a neutral pH ([3]; pH 6 to 8, physiological saline, up to 6 hours): ≥ 90% | radiochemical purity ([3]; pH 7, 0 hour): 99.23% | radiochemical purity ([3]; pH 7, 2 hours): 100% | radiochemical purity ([3]; pH 7, 4 hours): 99.46% | radiochemical purity ([3]; pH 7, 6 hours): 98.12% | radiochemical purity ([3]; pH 8, 0 hour): 99.78% | radiochemical purity ([3]; pH 8, 2 hours): 99.01% | radiochemical purity ([3]; pH 8, 4 hours): 99.89% | radiochemical purity ([3]; pH 8, 6 hours): 100%

Cc1cn([C@H]2C[C@H]([18F])[C@@H](CO)O2)c(=O)[nH]c1=O [[^18F]FLT]
radiochemical purity ([2]; pH 6, 0 hour, HPLC): 100% | radiochemical purity ([2]; pH 6, 2 hours, HPLC): 100% | radiochemical purity ([2]; pH 6, 4 hours, HPLC): 99.78% | radiochemical purity ([2]; pH 6, 6 hours, HPLC): 100% | radiochemical purity over time at a neutral pH ([2]; pH 6 to 8, physiological saline, up to 6 hours, HPLC): ≥ 90% | radiochemical purity ([2]; pH 7, 0 hour, HPLC): 100% | radiochemical purity ([2]; pH 7, 2 hours, HPLC): 100% | radiochemical purity ([2]; pH 7, 4 hours, HPLC): 100% | radiochemical purity ([2]; pH 7, 6 hours, HPLC): 100% | radiochemical purity ([2]; pH 8, 0 hour, HPLC): 99.15% | radiochemical purity ([2]; pH 8, 2 hours, HPLC): 100% | radiochemical purity ([2]; pH 8, 4 hours, HPLC): 99.29% | radiochemical purity ([2]; pH 8, 6 hours, HPLC): 100%
